Assay results published in patent US20210251237A1, “PLATFORM FOR DEVELOPING SOIL-BORNE PLANT PATHOGEN INHIBITING MICROBIAL CONSORTIA” (priority 2018, published 2021).
Where two headings read alike, the source gives them in different places. Marks after values point to notes of the source that are not given here.

Experiments:
[1] = test system: GS1, PS1 and PS3 (overlaid isolates); experiment: Mutual inhibition activity among GS1, PS1 and PS3; type: cell-based; details: for inhibition zone size: mild inhibition
Method: Each of the microbes—GS1, PS1 and PS3—was grown in the presence of every other isolate (i.e., GS1 with PS1; GS1 with PS3; and PS1 with PS3). Briefly, isolates GS1, PS1 and PS3 were dotted onto the center of individual petri dishes and allowed to grow for 3 days. Dotted isolates were then killed by placing petri dishes over a chloroform-filled watch glass in a safety cabinet for one hour. Subsequently, overlays of the other two isolates spread across the entire petri dish surface. In this way, each isolate was tested as a potential inhibitor (dotted isolates) in combination with every isolate as a target (overlaid isolates). The growth of the microbial isolates was evaluated for the presence or absence of zones of inhibition at the interphase between the bacterial isolates. […] Results from this analysis show the potential for isolates to coexist without inhibiting one another.

[2] = test system: Fusarium oxysporum; experiment: Pathogen suppressive activity plate assay (zone of inhibition); type: cell-based; details: for zone of inhibition: Table 1; for mean inhibitory zone size: Table 4
[3] = test system: Fusarium graminearum; type: cell-based; set-up: key to pathogen suppression (symbol): + refers to instances where there is some evidence for inhibition immediately over the surface of the dotted strain, but no clear inhibition zone beyond the dotted colony's edge; details: for zone of inhibition: Table 1; for pathogen suppression (symbol) / mean inhibitory zone size: Table 4
[4] = test system: potato scab; experiment: Potato field trials: percent scab control; type: in vivo; set-up: concentration or dose not given beside the values
[5] = test system: clinical antimicrobials (antibiotic discs); experiment: Antibiotic disc resistance/susceptibility assay of microbial isolates; type: cell-based
[6] = test system: Sclerotinia sclerotiorum; experiment: Pathogen suppressive activity plate assay (zone of inhibition); type: cell-based; details: for zone of inhibition: Table 1, pathogen isolate P19; for mean inhibitory zone size: Table 4
[7] = test system: Rhizoctonia solani; experiment: as above; type: cell-based; details: for zone of inhibition: Table 1, pathogen isolate P6; for mean inhibitory zone size: Table 4
[8] = test system: Phytophthora sojae; experiment: as above; type: cell-based; details: for zone of inhibition: Table 1, pathogen isolate P52; for mean inhibitory zone size: Table 4, pathogen target isolate P52
[9] = test system: Fusarium virguliforme; experiment: as above; type: cell-based; details: Table 4
[10] = test system: Pythium ultimum var. sporangiferum; experiment: as above; type: cell-based; details: for zone of inhibition: Table 1, pathogen isolate P58; for mean inhibitory zone size: Table 4, pathogen target isolate P58
[11] = test system: F. culmorum; experiment: as above; type: cell-based; details: Table 1; pathogen isolate P61
[12] = test system: Phytophthora medicaginis; experiment: as above; type: cell-based; details: for zone of inhibition: Table 1; for mean inhibitory zone size: Table 4
[13] = test system: random collection of Streptomyces from field soils; experiment: Enhancement of antibiotic production in field-soil Streptomyces; type: cell-based
[14] = test system: GS1 and PS3 (inhibition zones on Bacillus lawns); experiment: Antimicrobial signaling/responsiveness among GS1, PS1, PS3; type: cell-based; details: increased inhibition zones around GS1 and PS3 vs single inoculant controls

Brevibacillus laterosporus [PS3]
inhibition of the other members of the combination [1]: Neither isolate PS3 nor GS3 inhibit
zone of inhibition ([2]; pathogen isolate P27): 0 mm
zone of inhibition ([2]; pathogen isolate P29): 0 mm
mean inhibitory zone size ([2]; pathogen target isolate P25): 3.725 mm
mean inhibitory zone size ([2]; pathogen target isolate P26): 4.1 mm
mean inhibitory zone size ([2]; pathogen target isolate P28): 5.6 mm
mean inhibitory zone size ([2]; pathogen target isolate P29): 4.225 mm
zone of inhibition ([3]; pathogen isolate P31): 10.35 mm
zone of inhibition ([3]; pathogen isolate P34): 14.58 mm
pathogen suppression (symbol) ([3]; pathogen target isolate P30): +**
pathogen suppression (symbol) ([3]; pathogen target isolate P31): +
pathogen suppression (symbol) ([3]; pathogen target isolate P32): +
pathogen suppression (symbol) ([3]; pathogen target isolate P33): +
pathogen suppression (symbol) ([3]; pathogen target isolate P34): +
pathogen suppression (symbol) ([3]; pathogen target isolate P35): +
Percent Control (reduction in scab severity vs non-inoculated plots) ([4]; experiment BPP, disease on non-inoculated tubers 22.2): 27%
Percent Control (reduction in scab severity vs non-inoculated plots) ([4]; experiment BSP, disease on non-inoculated tubers 24.3): 40%
Percent Control (reduction in scab severity vs non-inoculated plots) ([4]; experiment BWP, disease on non-inoculated tubers 26.7): 30%
Percent Control (reduction in scab severity vs non-inoculated plots) ([4]; experiment RPP, disease on non-inoculated tubers 15.6): 23%
Percent Control (reduction in scab severity vs non-inoculated plots) ([4]; experiment RSCRG1, disease on non-inoculated tubers 28.1): 34%
Percent Control (reduction in scab severity vs non-inoculated plots) ([4]; experiment RSP, disease on non-inoculated tubers 8.8): 42%
Antibiotic resistance characteristics ([5]; Amoxicillin Clavulanate): MR (MR-moderately resistant (1-5 mm))
Antibiotic resistance characteristics ([5]; Chloramphenicol): MS (MS-moderately susceptible (6-10 mm))
Antibiotic resistance characteristics ([5]; Erythromycin): S (S-susceptible (>10 mm))
Antibiotic resistance characteristics ([5]; Kanamycin): S (S-susceptible (>10 mm))
Antibiotic resistance characteristics ([5]; Novobiocin 5): S (S-susceptible (>10 mm))
Antibiotic resistance characteristics ([5]; Novobiocin 30): S (S-susceptible (>10 mm))
Antibiotic resistance characteristics ([5]; Rifampin): MR (MR-moderately resistant (1-5 mm))
Antibiotic resistance characteristics ([5]; Streptomycin): S (S-susceptible (>10 mm))
Antibiotic resistance characteristics ([5]; Tetracycline): MR (MR-moderately resistant (1-5 mm))
Antibiotic resistance characteristics ([5]; Vancomycin 5): MS (MS-moderately susceptible (6-10 mm))
Antibiotic resistance characteristics ([5]; Vancomycin 30): S (S-susceptible (>10 mm))
zone of inhibition [6]: 11.48 mm
mean inhibitory zone size ([6]; pathogen target isolate P16): 4.517 mm
mean inhibitory zone size ([6]; pathogen target isolate P17): 5.567 mm
mean inhibitory zone size ([6]; pathogen target isolate P18): 4.975 mm
mean inhibitory zone size ([6]; pathogen target isolate P19): 5.8 mm
zone of inhibition [7]: 12.25 mm
mean inhibitory zone size ([7]; pathogen target isolate P5): 3.25 mm
mean inhibitory zone size ([7]; pathogen target isolate P6): 1.7875 mm
mean inhibitory zone size ([7]; pathogen target isolate P12): 1.5 mm
zone of inhibition [8]: 0 mm
mean inhibitory zone size [8]: 10.3 mm
mean inhibitory zone size ([9]; pathogen target isolate P20): 5.2 mm
mean inhibitory zone size ([9]; pathogen target isolate P21): 9.5 mm
mean inhibitory zone size ([9]; pathogen target isolate P22): 8.975 mm
mean inhibitory zone size ([9]; pathogen target isolate P23): 6.175 mm
zone of inhibition [10]: 3.73 mm
mean inhibitory zone size [10]: 6.6 mm
zone of inhibition [11]: 5.48 mm
zone of inhibition ([12]; pathogen isolate P43): 12.55 mm
zone of inhibition ([12]; pathogen isolate P44): 6.53 mm
mean inhibitory zone size ([12]; pathogen target isolate P43): 5.6 mm
mean inhibitory zone size ([12]; pathogen target isolate P44): 9.125 mm

Streptomyces sp. 3211.1 [PS1]
inhibition zone size ([1]; against GS1): < 5 mm
inhibition zone size ([1]; against GS3 (so in the source)): < 5 mm
zone of inhibition ([2]; pathogen isolate P27): 0 mm
zone of inhibition ([2]; pathogen isolate P29): 0 mm
mean inhibitory zone size ([2]; pathogen target isolate P25): 0 mm
mean inhibitory zone size ([2]; pathogen target isolate P26): 0 mm
mean inhibitory zone size ([2]; pathogen target isolate P28): 0 mm
mean inhibitory zone size ([2]; pathogen target isolate P29): 0 mm
zone of inhibition ([3]; pathogen isolate P31): 3.05 mm
zone of inhibition ([3]; pathogen isolate P34): 0 mm
mean inhibitory zone size ([3]; pathogen target isolate P30): 0 mm
mean inhibitory zone size ([3]; pathogen target isolate P31): 3.05 mm
mean inhibitory zone size ([3]; pathogen target isolate P32): 0 mm
mean inhibitory zone size ([3]; pathogen target isolate P33): 0 mm
mean inhibitory zone size ([3]; pathogen target isolate P34): 0 mm
mean inhibitory zone size ([3]; pathogen target isolate P35): 0 mm
more effective than other isolates in enhancing antibiotic production [13]: ~50%
share of a random collection of Streptomyces whose antibiotic production is enhanced [13]: 30%
Antibiotic resistance characteristics ([5]; Amoxicillin Clavulanate): MR (MR-moderately resistant (1-5 mm))
Antibiotic resistance characteristics ([5]; Chloramphenicol): R (R-resistant (0 inhibition zone))
Antibiotic resistance characteristics ([5]; Erythromycin): MR (MR-moderately resistant (1-5 mm))
Antibiotic resistance characteristics ([5]; Kanamycin): S (S-susceptible (>10 mm))
Antibiotic resistance characteristics ([5]; Novobiocin 5): MR (MR-moderately resistant (1-5 mm))
Antibiotic resistance characteristics ([5]; Novobiocin 30): MS (MS-moderately susceptible (6-10 mm))
Antibiotic resistance characteristics ([5]; Penicillin): R (R-resistant (0 inhibition zone))
Antibiotic resistance characteristics ([5]; Rifampin): MR (MR-moderately resistant (1-5 mm))
Antibiotic resistance characteristics ([5]; Streptomycin): MS (MS-moderately susceptible (6-10 mm))
Antibiotic resistance characteristics ([5]; Tetracycline): MR (MR-moderately resistant (1-5 mm))
Antibiotic resistance characteristics ([5]; Vancomycin 5): MS (MS-moderately susceptible (6-10 mm))
Antibiotic resistance characteristics ([5]; Vancomycin 30): MS (MS-moderately susceptible (6-10 mm))
zone of inhibition [6]: 0 mm
mean inhibitory zone size ([6]; pathogen target isolate P17): 12.8 mm
mean inhibitory zone size ([6]; pathogen target isolate P18): 3.25 mm
mean inhibitory zone size ([6]; pathogen target isolate P19): 0 mm
zone of inhibition [7]: 0 mm
mean inhibitory zone size ([7]; pathogen target isolate P5): 0 mm
mean inhibitory zone size ([7]; pathogen target isolate P6): 0 mm
mean inhibitory zone size ([7]; pathogen target isolate P12): 0 mm
effect on antibiotic production by the two other isolates [14]: enhance antibiotic production
zone of inhibition [8]: 0 mm
mean inhibitory zone size [8]: 0 mm
mean inhibitory zone size ([9]; pathogen target isolate P20): 0 mm
mean inhibitory zone size ([9]; pathogen target isolate P21): 0 mm
mean inhibitory zone size ([9]; pathogen target isolate P22): 0 mm
mean inhibitory zone size ([9]; pathogen target isolate P23): 3.58 mm
zone of inhibition [10]: 0 mm
mean inhibitory zone size [10]: 0 mm
zone of inhibition [11]: 0 mm
zone of inhibition ([12]; pathogen isolate P43): 0 mm
zone of inhibition ([12]; pathogen isolate P44): 0 mm
mean inhibitory zone size ([12]; pathogen target isolate P43): 0 mm
mean inhibitory zone size ([12]; pathogen target isolate P44): 0 mm
